One compound from publication PMC6615261, “Repurposing Azithromycin and Rifampicin Against Gram-Negative Pathogens by Combination With Peptidomimetics” (Frontiers in Cellular and Infection Microbiology, 2019) can be followed below.

For one experiment, the system named is P. aeruginosa ATTC 27853. To be noted: ATTC 27853, 24 h. On the procedure:
(§1) Minimal inhibitory concentrations (MICs) of peptidomimetics, antibiotics and their combinations were determined by broth microdilution according to the Clinical Laboratory Standards Institute performance standards (Clinical and Laboratory Standards Institute, [2013]). […] Since rifampicin and azithromycin mainly are used to treat infections with Gram-positive pathogens only CLSI clinical breakpoints were available for such bacteria. […] Potentiation of additional antibiotics by peptidomimetics was determined by using commercial 96-well plates containing varied concentrations of standard antibiotics (COMPAN1F; Trek Diagnostic Systems Inc.). The peptidomimetics were added immediately prior to inoculation with pathogen, and then MICs were determined as above. The MICs of peptidomimetic/antibiotic combinations were determined according to the method above, and the concentration ratios were selected based upon checkerboard results with 2:1 and 1:4 ratio of peptidomimetic with rifampicin or azithromycin, respectively. Minimal bactericidal concentrations (MBCs) were determined by using growth-curve assay plates. MIC plates were prepared as above, and then the plates were incubated at 37°C with continuous shaking. Growth was recorded at 10 min intervals as optical density (OD) at 600 nm during 24 h. At 24 h, for wells without growth, a sample was diluted 10-fold in sterile saline (0.9% sodium chloride) and plated onto MHA, following CLSI guidelines (Clinical and Laboratory Standards Institute, [1999]).

A further experiment deals with E. coli ST131. The conditions noted are these: ST131, 24 h. Here is the method:
as §1

For experiment [1], the system named is K. pneumoniae ST258. To be noted: ST258, 24 h. On the procedure: as §1
In experiment [2] the test system is K. pneumoniae clinical isolates and reference strains. Description: MIC of fixed-ratio peptidomimetic 1-antibiotic combinations in clinical isolates and reference strains. It is filed as cell-based, Klebsiella pneumoniae. To be noted: with rifampicin or azithromycin. The source says:
(§2) Bacterial strains used in this study comprise MDR clinical isolates of E. coli ST131 (Cerquetti et al., [2010]) and K. pneumoniae ST258 (Jana et al., [2017]), and American type culture collection (ATCC) strains: ATCC 25922 (E. coli), ATCC 13883 (K. pneumoniae), and ATCC 27853 (P. aeruginosa). Additional clinical isolates of E. coli, K. pneumoniae, and P. aeruginosa resistant to β-lactams (including carbapenems and cephalosporins) were provided by Laurent Poirel, Université de Fribourg, Switzerland. The following growth media was routinely used for bacterial culturing: Luria-Burtani (LB), cation-adjusted Mueller-Hinton agar (MHA) and broth (MHB II). All assays were performed in cation-adjusted MHA or MHB II. […]
(§3) Minimal inhibitory concentrations (MICs) of peptidomimetics, antibiotics and their combinations were determined by broth microdilution according to the Clinical Laboratory Standards Institute performance standards (Clinical and Laboratory Standards Institute, [2013]). […] Potentiation of additional antibiotics by peptidomimetics was determined by using commercial 96-well plates containing varied concentrations of standard antibiotics (COMPAN1F; Trek Diagnostic Systems Inc.). The peptidomimetics were added immediately prior to inoculation with pathogen, and then MICs were determined as above. […] Minimal bactericidal concentrations (MBCs) were determined by using growth-curve assay plates. […]

In a further experiment the test system is MDR E. coli ST131. Description: Screening of peptidomimetic-antibiotic combinations (growth / growth inhibition). It is filed as cell-based, Escherichia coli. Also on record: key to Growth in combination with RIF / Growth in combination with AZM: Growth (+); growth inhibition (–).
The test system of experiment [3] is isolates of E. coli, K. pneumoniae and P. aeruginosa. Description: Induction of susceptibility in MDR isolates (summary over all three species). The conditions noted are these: peptidomimetic 1 at ≤1 μM; 30 of 36 isolates. In kind it is cell-based.
From the text: as §2, §3

Experiment [4] deals with P. aeruginosa clinical isolates and reference strains. Description: MIC of fixed-ratio peptidomimetic 1-antibiotic combinations in clinical isolates and reference strains. In kind it is cell-based, Pseudomonas aeruginosa. The conditions noted are these: with rifampicin or azithromycin.
From the text: as §2, with “II. Antibiotics were purchased from Sigma-Aldrich and the peptidomimetic collection (Table S1) was curated and provided by Henrik Franzyk.” for “II.”
(§4) Minimal inhibitory concentrations (MICs) of peptidomimetics, antibiotics and their combinations were determined by broth microdilution according to the Clinical Laboratory Standards Institute performance standards (Clinical and Laboratory Standards Institute, [2013]). […] Potentiation of additional antibiotics by peptidomimetics was determined by using commercial 96-well plates containing varied concentrations of standard antibiotics (COMPAN1F; Trek Diagnostic Systems Inc.). The peptidomimetics were added immediately prior to inoculation with pathogen, and then MICs were determined as above. The MICs of peptidomimetic/antibiotic combinations were determined according to the method above, and the concentration ratios were selected based upon checkerboard results with 2:1 and 1:4 ratio of peptidomimetic with rifampicin or azithromycin, respectively. Minimal bactericidal concentrations (MBCs) were determined by using growth-curve assay plates. […] Growth was recorded at 10 min intervals as optical density (OD) at 600 nm during 24 h. […]

In experiment [5] the test system is K. pneumoniae ST258. Description: MIC by broth microdilution. In kind it is cell-based, Klebsiella pneumoniae. Put shortly: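 MICs of peptidomimetics, antibiotics and their combinations were measured by CLSI broth microdilution. Combination ratios came from checkerboard results: peptidomimetic to rifampicin 2:1, to azithromycin 1:4. For potentiation, peptidomimetic was added to preformed antibiotic-gradient panels just before inoculation.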
For orientation: Broth dilution looks for growth in wells or tubes with falling amounts of substance.

The test system of experiment [6] is K. pneumoniae ST258. Description: Screening of peptidomimetic-antibiotic combinations (growth / growth inhibition). In kind it is cell-based, Klebsiella pneumoniae. Also on record: key to Growth in combination with RIF / Growth in combination with AZM: Growth (+); growth inhibition (–).
The test system of experiment [7] is E. coli clinical isolates and reference strains. Description: MIC of fixed-ratio peptidomimetic 1-antibiotic combinations in clinical isolates and reference strains. In kind it is cell-based, Escherichia coli. To be noted: with rifampicin or azithromycin.
From the text: as §2, with “II. Antibiotics were purchased from Sigma-Aldrich and the peptidomimetic collection (Table S1) was curated and provided by Henrik Franzyk.” for “II.”
as §4

Where [8] appears, read: 0.5 μM peptidomimetic + 0.5 μg/mL rifampicin.
Setting [9] is: 0.5 μM peptidomimetic + 1 μg/mL azithromycin.
The mark [10] stands for this setting: peptidomimetic 0.5 μM + azithromycin 1 μg/mL.
[11] abbreviates: peptidomimetic 0.5 μM + rifampicin 0.5 μg/mL.

Take `NCCCC[C@H](NC(=O)CCN(Cc1ccccc1)C(=O)[C@H](CCCCN)NC(=O)CCN(Cc1ccccc1)C(=O)[C@H](CCCCN)NC(=O)CCN(Cc1ccccc1)C(=O)[C@H](CCCCN)NC(=O)CCN(Cc1ccccc1)C(=O)[C@H](CCCCN)NC(=O)CCN(Cc1ccccc1)C(=O)[C@H](CCCCN)NC(=O)CCN(Cc1ccccc1)C(=O)[C@H](CCCCN)NC(=O)CCN(Cc1ccccc1)C(=O)[C@@H](N)CCCCN)C(=O)N(CCC(N)=O)Cc1ccccc1` [Peptidomimetic 1, H-(Lys-βNPhe)8-NH2]: the “MBC (peptidomimetic alone)” value is 2 µM in the experiment with P. aeruginosa ATTC 27853, 1 µM in the experiment on E. coli ST131 and 16 to 32 µM in the experiment on K. pneumoniae ST258 [1]. Moreover, the “MIC (peptidomimetic alone)” value in the experiment on P. aeruginosa ATTC 27853 amounted to 1 µM; in the experiment with E. coli ST131 it was 1 µM; with K. pneumoniae ST258 [1], 8 µM. The “Peptidomimetic concentration required to induce susceptibility, three K. pneumoniae isolates” value in experiment [2] was 2 to 8 µM. Further, the “Screening result with rifampicin” value in the experiment with MDR E. coli ST131 (setting [8]) and with K. pneumoniae ST258 [6] (setting [8]) was “inhibit growth” each time. The “Screening result with azithromycin” value in the experiment on MDR E. coli ST131 (setting [9]) and in the experiment on K. pneumoniae ST258 [6] (setting [9]) was “prevented growth” throughout. For the same compound, the “Growth in combination with AZM” value in the experiment with MDR E. coli ST131 (setting [10]) and in the experiment with K. pneumoniae ST258 [6] (setting [10]) was “–” in each case. The “Growth in combination with RIF” value in the experiment with MDR E. coli ST131 (setting [11]) and in the experiment with K. pneumoniae ST258 [6] (setting [11]) was “–” in each case. The “Isolates in which susceptibility to rifampicin and azithromycin was induced” value in experiment [3] was 83%. Moreover, in experiment [4], the “Peptidomimetic concentration typically required, P. aeruginosa isolates” value lay in the range of 1 to 8 µM. The “Selectivity Index (SI) K. pneumoniae ST258” value in the experiment on K. pneumoniae ST258 [5] (average of EC50 (HepG2, NIH 3T3) divided by MIC) is on record as “(10)”. Moreover, the “MIC K. pneumoniae ST258” value in the experiment on K. pneumoniae ST258 [5] (peptidomimetic alone) was found to be 16 µM. The “Peptidomimetic concentration in combination, most E. coli isolates” value in experiment [7] lay in the range of 0.5 to 1 µM.
